Experimental data: patent US12533300B2, “Self-assembling peptides in the prevention and treatment of cavitated carious lesions” (Credentis AG, priority 2019, dated 2026)

Tests used:
[1] = Release profile of model substance Congo Red from dental materials into PBS (photometer, 500 nm); format: physicochemical
Method: As well-known to the person skilled in the art, a release profile of an agent, i.e. fluoride or self-assembling peptide, depends on the matrix of the material (Mousavinasab et al., 2009, Dent Res J (Isfahan) 6(2):75-81). In the following experiment, the release profile of a model substance mimicking self-assembling peptide, Congo Red, was assessed after the incorporation into the dental material. The material was prepared and applied as per instructions for use (IFU), usually describing the use of 0.5-0.75 mL of the respective products. To mimic the saliva, Phosphate Buffered Saline (PBS) was used. PBS matches the osmolarity and ion concentrations of the human body—it is isotonic. To mimic the constant saliva flux, the applied amount was placed in a solution equal to 1 h saliva flux, which is about 20 mL. The diffusion of the material was assessed at 500 nm with a photometer. Release Profile a) Preparation of Varnish (Duraphat) and Paro Amin Fluor Gelée • Per suppliers IFU, it is recommend to add 0.5-1 mL of the varnish to a carious site. The concentration of Congo Red was chosen to lead a distinct signal in the UV Vis. • Place 12 mg Congo Red in 2 mL Eppendorf tube • Add 2 mL of the varnish directly into the tube with a syringe • Mix Congo Red and varnish vigorously until content uniformity is reached • Pick up product with syringe • Place 0.5-0.75 ml of the product on a microscopic slide as a thin film—as recommended per IFU • Let it air dry—as per IFU b) Preparation of Lonofil (Glass Ionomer Restorative Material) • Place 12 mg Congo Red directly in a dental cup • Add 2 spoons of lonofil Plus as per IFU • Add 2 drops of water and mix as per IFU • Place amount of product on microscopic slide c) Incubation Prepare the PBS Solution with 1% EtOH for preservation • Place slide in 50 ml centrifugation tube • Add 20 mL of PBS • Place on rotating wheel d) Measurement and Calculation • Directly decant 1 mL of incubated fluid into UV-Cell • Measure at 500 nm, control/blank=PBS with 1% EthOH subtract control w/o Congo Red from measured value

[2] = Release profile of P11-4 from varnish and glass ionomer cement (280 nm); format: physicochemical
Method: The material was prepared and applied as per instructions for use (IFU), usually describing the use of 0.5-0.75 mL of the respective products. To mimic the saliva, Phosphate Buffered Saline (PBS) was used. PBS matches the osmolarity and ion concentrations of the human body—it is isotonic. To mimic the constant saliva flux, the applied amount was placed in a solution equal to 1 h saliva flux, which is about 20 mL. The diffusion of the material was assessed at 500 nm with a photometer.
Release Profile a) Preparation of Varnish (Duraphat) and Paro Amin Fluor Gelée • Per suppliers IFU, it is recommend to add 0.5-1 mL of the varnish to a carious site. The concentration of Congo Red was chosen to lead a distinct signal in the UV Vis. • Place 12 mg Congo Red in 2 mL Eppendorf tube • Add 2 mL of the varnish directly into the tube with a syringe • Mix Congo Red and varnish vigorously until content uniformity is reached • Pick up product with syringe • Place 0.5-0.75 ml of the product on a microscopic slide as a thin film—as recommended per IFU • Let it air dry—as per IFU b) Preparation of Lonofil (Glass Ionomer Restorative Material) • Place 12 mg Congo Red directly in a dental cup • Add 2 spoons of lonofil Plus as per IFU • Add 2 drops of water and mix as per IFU • Place amount of product on microscopic slide c) Incubation
Prepare the PBS Solution with 1% EtOH for preservation • Place slide in 50 ml centrifugation tube • Add 20 mL of PBS • Place on rotating wheel d) Measurement and Calculation • Directly decant 1 mL of incubated fluid into UV-Cell • Measure at 500 nm, control/blank=PBS with 1% EthOH subtract control w/o Congo Red from measured value
Example 7 was in essence carried out as Example 6, but with the self-assembling peptide P11-4, if not otherwise described. 12 mg of P11-4 (credentis AG), in monomeric form, were added to either the varnish Duraphat (Sample ID: AP) or the glass ionomer cement Aqua lonofil Plus (Sample ID BP) in the amounts and under the conditions described above. The incubation was carried out in a static manner at room temperature. Measurement was at 280 nm, and the control value for buffer without peptide was subtracted from the measured value.

[3] = Pulp capping with P11-4 solution under dental material; format: in vivo; settings: exposed pulp covered with P11-4 solution (e.g., 100 μl, 10 mg/mL, pH 8) before Resin Composite
Method: A cavity exposing the pulp is excavated due to dental caries. The pulp is covered with P11-4 solution (e.g., 100 μl, 10 mg/mL, pH 8) before placing of a dental material, e.g., Resin Composite according to the manufacturer's instructions (e.g., application in layers and light curing, as appropriate).

[4] = Alkilzy et al., 2018; cited from earlier work

Molecule	Time course of Congo Red release from glass ionomer cement ([1]; Aqua Ionofil Plus, FIG. 4A)	Speed of Congo Red release from varnish relative to glass ionomer cement ([1]; Duraphat versus Aqua Ionofil Plus, FIG. 4A)	Release of Congo Red from paro Amin Fluor Gelée ([1]; Sample 2, used for comparison, 20 mL PBS with 1% EtOH, FIG. 4B)	Release of Congo Red from varnish Duraphat ([1]; sample A1, 12 mg Congo Red in 2 mL varnish, 20 mL PBS with 1% EtOH, FIG. 4A)	Release of Congo Red from glass ionomer cement Aqua Ionofil Plus ([1]; sample B1, 12 mg Congo Red, 20 mL PBS with 1% EtOH, FIG. 4A)	Speed of P11-4 release from varnish relative to glass ionomer cement ([2]; Duraphat versus Aqua Ionofil Plus, FIG. 4C)	Release of P11-4 from varnish Duraphat ([2]; sample AP, 12 mg monomeric P11-4, static incubation at room temperature, FIG. 4C)	Release of P11-4 from glass ionomer cement Aqua Ionofil Plus ([2]; sample BP, 12 mg monomeric P11-4, static incubation at room temperature, FIG. 4C)	Amount of released peptide over time ([2]; varnish and glass ionomer cement, measured for several days)	Pulp symptoms (pulpitis) after pulp capping [3]	Effect on early carious lesions in combination with fluoride, compared to fluoride alone [4]
Nc1c(/N=N/c2ccc(-c3ccc(/N=N/c4cc(S(=O)(=O)O)c5ccccc5c4N)cc3)cc2)cc(S(=O)(=O)O)c2ccccc12 [Congo red, Congo Red]	constant and increases with time	quicker	released	released	released						
P11-4: self-assembling peptide, sequence QQRFEWEFEQQ (P11-4)						quicker	slowly and substantially constantly released	slowly and substantially constantly released	increases with time	remains symptoms free	additional effect
